Assays:
Rat [1] = test: concentration in lung after dosing; settings: dosed: 2,3,7,8-Tetrachlorodibenzo-p-dioxin, oral, Female, Sprague-Dawley
Rat [2] = test: concentration in liver after dosing; settings: 24 h; dosed: 2,3,7,8-Tetrachlorodibenzo-p-dioxin; 0.0001 mg/kg; oral; Female; Sprague-Dawley
Rat [3] = test: concentration in liver after dosing; settings: dosed: 2,3,7,8-Tetrachlorodibenzo-p-dioxin, oral, Female, Sprague-Dawley
Rat [4] = test: concentration in liver after dosing; settings: 24 h; dosed: 2,3,7,8-Tetrachlorodibenzo-p-dioxin; 0.0001 mg/kg; oral; Female; Sprague-Dawley; remark: listed apart in the source
Rat [5] = test: concentration in liver after dosing; settings: 24 h; dosed: 2,3,7,8-Tetrachlorodibenzo-p-dioxin; 0.0001 mg/kg; oral; Female; Sprague-Dawley; remark: listed apart in the source
Rat [6] = test: concentration in liver after dosing; settings: 24 h; dosed: 2,3,7,8-Tetrachlorodibenzo-p-dioxin; 0.0001 mg/kg; oral; Female; Sprague-Dawley; remark: listed apart in the source
Rat [7] = test: concentration in liver after dosing; settings: 24 h; dosed: 2,3,7,8-Tetrachlorodibenzo-p-dioxin; 0.00005 mg/kg; oral; Female; Sprague-Dawley
Rat [8] = test: concentration in plasma after dosing; settings: dosed: 2,3,7,8-Tetrachlorodibenzo-p-dioxin, 0.0001 mg/kg, oral, Female, Sprague-Dawley
Rat [9] = test: concentration in adipose after dosing; settings: 1680 h; dosed: 2,3,7,8-Tetrachlorodibenzo-p-dioxin; 0.0001 mg/kg; oral; Female; Sprague-Dawley
Rat [10] = test: concentration in adipose after dosing; settings: 1680 h; dosed: 2,3,7,8-Tetrachlorodibenzo-p-dioxin; 0.0001 mg/kg; oral; Female; Sprague-Dawley; remark: listed apart in the source
Rat [11] = test: concentration in adipose after dosing; settings: 480 h; dosed: 2,3,7,8-Tetrachlorodibenzo-p-dioxin; 0.00005 mg/kg; oral; Female; Sprague-Dawley
Rat [12] = test: concentration in adipose after dosing; settings: 2400 h; dosed: 2,3,7,8-Tetrachlorodibenzo-p-dioxin; 0.0001 mg/kg; oral; Female; Sprague-Dawley
Rat [13] = test: concentration in adipose after dosing; settings: 8 h; dosed: 2,3,7,8-Tetrachlorodibenzo-p-dioxin; 0.0001 mg/kg; oral; Female; Sprague-Dawley
Rat [14] = test: concentration in adipose after dosing; settings: 48 h; dosed: 2,3,7,8-Tetrachlorodibenzo-p-dioxin; 0.0001 mg/kg; oral; Female; Sprague-Dawley
Rat [15] = test: concentration in adipose after dosing; settings: 960 h; dosed: 2,3,7,8-Tetrachlorodibenzo-p-dioxin; 0.00005 mg/kg; oral; Female; Sprague-Dawley
Rat [16] = test: concentration in adipose after dosing; settings: dosed: 2,3,7,8-Tetrachlorodibenzo-p-dioxin, oral, Female, Sprague-Dawley
Rat [17] = test: concentration in adipose after dosing; settings: 960 h; dosed: 2,3,7,8-Tetrachlorodibenzo-p-dioxin; 0.0001 mg/kg; oral; Female; Sprague-Dawley

Clc1cc2c(cc1Cl)Oc1cc(Cl)c(Cl)cc1O2 [2,3,7,8-Tetrachlorodibenzo-p-dioxin]
concentration in lung (Rat [1]; 960 h, 0.00005 mg/kg): 465 pg/g
concentration in lung (Rat [1]; 1680 h, 0.0001 mg/kg): 201 pg/g
concentration in liver (Rat [2]): 1310 pg/g
concentration in liver (Rat [3]; 24 h, 0.00005 mg/kg): 472 pg/g
concentration in liver (Rat [3]; 24 h, 0.0001 mg/kg): 1630 pg/g
concentration in liver (Rat [3]; 480 h, 0.00005 mg/kg): 271 pg/g
concentration in liver (Rat [3]; 480 h, 0.0001 mg/kg): 307 pg/g
concentration in liver (Rat [3]; 960 h, 0.00005 mg/kg): 205 pg/g
concentration in liver (Rat [3]; 1680 h, 0.0001 mg/kg): 288 pg/g
concentration in liver (Rat [4]): 1200 pg/g
concentration in liver (Rat [5]): 1300 pg/g
concentration in liver (Rat [6]): 1450 pg/g
concentration in liver (Rat [7]): 515 pg/g
concentration in plasma (Rat [8]; 1.5 h): 0.104 ng/mL
concentration in plasma (Rat [8]; 48 h): 0.631 ng/mL
concentration in plasma (Rat [8]; 144 h): 0.106 ng/mL
concentration in plasma (Rat [8]; 240 h): 0.161 ng/mL
concentration in plasma (Rat [8]; 360 h): 0.184 ng/mL
concentration in adipose (Rat [9]): 220 pg/g
concentration in adipose (Rat [10]): 279 pg/g
concentration in adipose (Rat [11]): 95 pg/g
concentration in adipose (Rat [12]): 186 pg/g
concentration in adipose (Rat [13]): 260 pg/g
concentration in adipose (Rat [14]): 397 pg/g
concentration in adipose (Rat [15]): 116 pg/g
concentration in adipose (Rat [16]; 8 h, 0.00005 mg/kg): 120 pg/g
concentration in adipose (Rat [16]; 8 h, 0.0001 mg/kg): 218 pg/g
concentration in adipose (Rat [16]; 48 h, 0.0001 mg/kg): 303 pg/g
concentration in adipose (Rat [16]; 480 h, 0.00005 mg/kg): 110 pg/g
concentration in adipose (Rat [16]; 480 h, 0.0001 mg/kg): 428 pg/g
concentration in adipose (Rat [16]; 960 h, 0.00005 mg/kg): 93 pg/g
concentration in adipose (Rat [16]; 960 h, 0.0001 mg/kg): 171 pg/g
concentration in adipose (Rat [16]; 1680 h, 0.0001 mg/kg): 134 pg/g
concentration in adipose (Rat [16]; 2400 h, 0.00005 mg/kg): 93 pg/g
concentration in adipose (Rat [16]; 2400 h, 0.0001 mg/kg): 156 pg/g
concentration in adipose (Rat [17]): 159 pg/g
